Reference: patent US12415834B2, “GhR-binding peptide and composition comprising same” (priority 2021, dated 2025)
Starred links: 1 amine or outer side, 2 acyl side, 3 side chain; linkers in the order of their positions; H or OH if unused. Positions of bridges follow the written chain, without caps; N, C: chain ends. Non-standard residues stand in square brackets, D forms with d. Residues, ends and D or L forms follow the SMILES beside them. Groups on a side chain read outwards from the residue. *: point of attachment. X12 = NC(=O)[C@H](CCCCN*)NC(=O)CC[C@H](NC(=O)CC[C@H](NC(=O)CCCc1ccc(-c2ccccc2)cc1)C(=O)O)C(=O)O; X11 = NC(=O)[C@H](CCCCN*)NC(=O)CC[C@H](NC(=O)CC[C@H](NC(=O)CCCCCCCCCCCCCCCC(=O)O)C(=O)O)C(=O)O; X3 = NC(=O)[C@H](CCCCN*)NC(=O)CC[C@H](NC(=O)CC[C@H](NC(=O)CCCCCCCCCCCCCCC(=O)O)C(=O)O)C(=O)O; X10 = NC(=O)[C@H](CCCCN*)NC(=O)CC[C@H](NC(=O)CC[C@H](NC(=O)CCCc1ccc(I)cc1)C(=O)O)C(=O)O; X18 = NC(=O)[C@H](CCCCN*)NC(=O)CC[C@H](NC(=O)CC[C@H](NC(=O)CCCc1ccccc1)C(=O)O)C(=O)O; X17 = NC(=O)[C@H](CCCCN*)NC(=O)CC[C@H](NC(=O)CCCc1ccc(I)cc1)C(=O)O; Trp(1-CH2CO) = O=C([C@H](Cc1cn(CC(=O)[*:3])c2ccccc12)N[*:1])[*:2]; Trp(5-OMe) = COc1ccc2[nH]cc(C[C@H](N)C(=O)O)c2c1; Butanoyl(4-(4-I-phenyl)) = O=C(CCCc1ccc(I)cc1)*; Trp(5-OH) = N[C@@H](Cc1c[nH]c2ccc(O)cc12)C(=O)O; Phe(4-COOH) = N[C@@H](Cc1ccc(C(=O)O)cc1)C(=O)O; X7 = O=C(O)CN1CCC(N[*:1])(C(=O)[*:2])CC1; γGlu = O=C(O)[C@H](CCC(=O)[*:2])N[*:1]; hArg = N=C(N)NCCCC[C@H](N)C(=O)O; NMeK = CN[C@@H](CCCCN)C(=O)O; X16 = CN(CC(=O)[*:1])[*:2]; Aib = CC(C)(N)C(=O)O

Biological target: T1, Recombinant human GhR-Fc protein (Homo sapiens, UniProt P10912)
T1 construct: purchased R&D Systems
T1 sequence (P10912 with tags, fused parts or gaps limits assumed): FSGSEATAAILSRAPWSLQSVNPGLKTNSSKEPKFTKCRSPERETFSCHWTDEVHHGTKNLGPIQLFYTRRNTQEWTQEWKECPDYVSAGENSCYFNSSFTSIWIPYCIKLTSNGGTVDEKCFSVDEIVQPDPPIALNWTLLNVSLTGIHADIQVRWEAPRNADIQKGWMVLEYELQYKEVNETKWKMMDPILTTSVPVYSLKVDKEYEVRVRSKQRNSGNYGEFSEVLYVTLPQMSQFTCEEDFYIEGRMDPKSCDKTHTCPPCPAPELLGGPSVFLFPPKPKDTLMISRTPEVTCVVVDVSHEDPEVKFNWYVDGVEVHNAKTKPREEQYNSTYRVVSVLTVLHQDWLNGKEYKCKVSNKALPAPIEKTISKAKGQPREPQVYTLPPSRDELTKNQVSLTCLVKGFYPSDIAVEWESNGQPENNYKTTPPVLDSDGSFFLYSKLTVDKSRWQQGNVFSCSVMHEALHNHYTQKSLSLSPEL
Experiment: SPR binding assay (Biacore T200, single-cycle kinetics) of peptides against immobilized human GhR-Fc
Settings: not given
Method: SPR assay was performed using Biacore T200 (cytiva: Former GE Healthcare). After the equilibration of Series S Sensor Chip CM5 (produced by cytiva: Former GE Healthcare) with Running Buffer (HBS-EP with 1% (v/v) DMSO), an EDC/NHS mixture was injected at a flow rate of 10 μL/min for 7 minutes to thereby activate the functional groups on sensor chip. Recombinant human GhR-Fc protein (R&D Systems) in 10 mM Acetate (pH 4.0) was injected immobilized to at a flow rate of 5 μL/min. It took 7 minutes to immobilize the GhR on the substrate surfaces of the sensor chip. Then Ethanolamine was injected at a flow rate of 10 μL/min for 7 minutes. 1M Ethanolamine (aq.) was injected at a flow rate of 10 μL/min for 420 seconds for capping.
Using these Peptide Samples, kinetics of peptides against human GhR-Fc protein were measured. The method adopted for sample measurement was a single-cycle kinetics method. The analysis was conducted using the evaluation software provided with Biacore T200. A DMSO correction curve obtained by solvent correction measurements was applied for the analysis. Kinetics fitting was done on the difference data obtained by subtracting the baseline data from sample measurement data. KD values were calculated based on the association rate constant (ka) and dissociation rate constant (kd). […]

SMILES	Kd
CC(C)[C@@H]1NC(=O)[C@H](C(C)C)NC(=O)[C@@H]2CCCCNC(=O)Cn3cc(c4ccccc43)C[C@H](NC(=O)[C@H](CC(N)=O)NC(=O)[C@H](CO)NC1=O)C(=O)N[C@@H](Cc1ccc(C(=O)O)cc1)C(=O)N[C@@H](CCCCN)C(=O)N[C@@H](Cc1c[nH]c3ccc(O)cc13)C(=O)NC(C)(C)C(=O)N[C@@H](C(C)C)C(=O)N[C@H](C(=O)NCCCC[C@H](NC(=O)CC[C@H](NC(=O)CC[C@H](NC(=O)CCCc1ccc(-c3ccccc3)cc1)C(=O)O)C(=O)O)C(N)=O)CSCC(=O)N[C@@H](Cc1ccc(C(=O)O)cc1)C(=O)N2C [Compound 15] ({CH2CO}-[Phe(4-COOH)][NMeK]VVSN[Trp(1-CH2CO)][Phe(4-COOH)]K[Trp(5-OH)][Aib]VC-X12; lactam 2-7; thioether N-13)	1.61 nM

Same assay, conditions: SPR, hGhR; Table 1 bicyclic peptides; KD calculated from ka and kd; read-out: KD

SMILES	Kd
CC(C)[C@@H]1NC(=O)[C@H](C(C)C)NC(=O)[C@@H]2CCCCNC(=O)Cn3cc(c4ccccc43)C[C@H](NC(=O)[C@H](CC(N)=O)NC(=O)[C@H](CO)NC1=O)C(=O)N[C@@H](Cc1ccc(O)cc1)C(=O)N[C@@H](CCCCN)C(=O)N[C@@H](Cc1c[nH]c3ccc(O)cc13)C(=O)NC(C)(C)C(=O)N[C@@H](C(C)C)C(=O)N[C@H](C(=O)NCCCC[C@H](NC(=O)CC[C@H](NC(=O)CC[C@H](NC(=O)CCCc1ccc(I)cc1)C(=O)O)C(=O)O)C(N)=O)CSCC(=O)N[C@@H](Cc1ccc(O)cc1)C(=O)N2C [Compound 32] ({CH2CO}-Y[NMeK]VVSN[Trp(1-CH2CO)]YK[Trp(5-OH)][Aib]VC-X10; lactam 2-7; thioether N-13)	0.98 nM
CC(C)[C@@H]1NC(=O)[C@H](C(C)C)NC(=O)[C@@H]2CCCCNC(=O)Cn3cc(c4ccccc43)C[C@H](NC(=O)[C@H](CC(N)=O)NC(=O)[C@H](CO)NC1=O)C(=O)N[C@@H](Cc1ccc(C(=O)O)cc1)C(=O)N[C@@H](CCCCN)C(=O)N[C@@H](Cc1c[nH]c3ccc(O)cc13)C(=O)NC(C)(C)C(=O)N[C@@H](C(C)C)C(=O)N[C@H](C(=O)NCCCC[C@H](NC(=O)CC[C@H](NC(=O)CCCc1ccc(I)cc1)C(=O)O)C(N)=O)CSCC(=O)N[C@@H](Cc1ccc(C(=O)O)cc1)C(=O)N2C [Compound 13] ({CH2CO}-[Phe(4-COOH)][NMeK]VVSN[Trp(1-CH2CO)][Phe(4-COOH)]K[Trp(5-OH)][Aib]VC-X17; lactam 2-7; thioether N-13)	1.36 nM
CC(C)[C@@H]1NC(=O)[C@H](C(C)C)NC(=O)[C@@H]2CCCCNC(=O)Cn3cc(c4ccccc43)C[C@H](NC(=O)[C@H](CC(N)=O)NC(=O)[C@H](CO)NC1=O)C(=O)N[C@@H](Cc1ccc(C(=O)O)cc1)C(=O)N[C@@H](CCCCNC(=N)N)C(=O)N[C@@H](Cc1c[nH]c3ccc(O)cc13)C(=O)NC(C)(C)C(=O)N[C@@H](C(C)C)C(=O)N[C@H](C(=O)NCCCC[C@H](NC(=O)CC[C@H](NC(=O)CC[C@H](NC(=O)CCCc1ccc(I)cc1)C(=O)O)C(=O)O)C(N)=O)CSCC(=O)N[C@@H](Cc1ccc(C(=O)O)cc1)C(=O)N2C [Compound 7] ({CH2CO}-[Phe(4-COOH)][NMeK]VVSN[Trp(1-CH2CO)][Phe(4-COOH)][hArg][Trp(5-OH)][Aib]VC-X10; lactam 2-7; thioether N-13)	0.96 nM
CC(C)[C@@H]1NC(=O)[C@H](C(C)C)NC(=O)[C@@H]2CCCCNC(=O)Cn3cc(c4ccccc43)C[C@H](NC(=O)[C@H](CC(N)=O)NC(=O)[C@H](CO)NC1=O)C(=O)N[C@@H](Cc1ccc(C(=O)O)cc1)C(=O)N[C@@H](CCCCN)C(=O)N[C@@H](Cc1c[nH]c3ccc(O)cc13)C(=O)NC(C)(C)C(=O)N[C@@H](C(C)C)C(=O)N[C@H](C(=O)NCCCC[C@H](NC(=O)CC[C@H](NC(=O)CC[C@H](NC(=O)CCCCCCCCCCCCCCCC(=O)O)C(=O)O)C(=O)O)C(N)=O)CSCC(=O)N[C@@H](Cc1ccc(C(=O)O)cc1)C(=O)N2C [Compound 61] ({CH2CO}-[Phe(4-COOH)][NMeK]VVSN[Trp(1-CH2CO)][Phe(4-COOH)]K[Trp(5-OH)][Aib]VC-X11; lactam 2-7; thioether N-13)	2.53 nM
CC(C)[C@@H]1NC(=O)[C@H](C(C)C)NC(=O)[C@@H]2CCCCNC(=O)Cn3cc(c4ccccc43)C[C@H](NC(=O)[C@H](CC(N)=O)NC(=O)[C@H](CO)NC1=O)C(=O)N[C@@H](Cc1ccc(C(=O)O)cc1)C(=O)N[C@@H](CCCCN)C(=O)N[C@@H](Cc1c[nH]c3ccc(O)cc13)C(=O)NC(C)(C)C(=O)N[C@@H](C(C)C)C(=O)N[C@H](C(=O)NCCCC[C@H](NC(=O)CC[C@H](NC(=O)CC[C@H](NC(=O)CCCc1ccccc1)C(=O)O)C(=O)O)C(N)=O)CSCC(=O)N[C@@H](Cc1ccc(C(=O)O)cc1)C(=O)N2C [Compound 10] ({CH2CO}-[Phe(4-COOH)][NMeK]VVSN[Trp(1-CH2CO)][Phe(4-COOH)]K[Trp(5-OH)][Aib]VC-X18; lactam 2-7; thioether N-13)	2.03 nM
CC(C)[C@@H]1NC(=O)[C@H](C(C)C)NC(=O)[C@@H]2CCCCNC(=O)Cn3cc(c4ccccc43)C[C@H](NC(=O)[C@H](CC(N)=O)NC(=O)[C@H](CO)NC1=O)C(=O)N[C@@H](Cc1ccc(O)cc1)C(=O)N[C@@H](CCCCN)C(=O)N[C@@H](Cc1c[nH]c3ccc(O)cc13)C(=O)NC(C)(C)C(=O)N[C@@H](C(C)C)C(=O)N[C@H](C(=O)NCC(N)=O)CSCC(=O)N[C@@H](Cc1ccc(O)cc1)C(=O)N2C [Compound 1] ({CH2CO}-Y[NMeK]VVSN[Trp(1-CH2CO)]YK[Trp(5-OH)][Aib]VCG-NH2; lactam 2-7; thioether N-13; C-terminus assumed)	0.7 nM
CC(C)[C@@H]1NC(=O)[C@H](C(C)C)NC(=O)[C@@H]2CCCCNC(=O)Cn3cc(c4ccccc43)C[C@H](NC(=O)[C@H](CC(N)=O)NC(=O)[C@H](CO)NC1=O)C(=O)N[C@@H](Cc1ccc(O)cc1)C(=O)N[C@@H](CCCCN)C(=O)N[C@@H](Cc1c[nH]c3ccc(O)cc13)C(=O)NC1(CCN(CC(=O)O)CC1)C(=O)N[C@@H](C(C)C)C(=O)N[C@H](C(=O)NCCCC[C@H](NC(=O)CC[C@H](NC(=O)CC[C@H](NC(=O)CCCCCCCCCCCCCCC(=O)O)C(=O)O)C(=O)O)C(N)=O)CSCC(=O)N[C@@H](Cc1ccc(C(=O)O)cc1)C(=O)N2C [Compound 18] ({CH2CO}-[Phe(4-COOH)][NMeK]VVSN[Trp(1-CH2CO)]YK[Trp(5-OH)][X7]VC-X3; lactam 2-7; thioether N-13)	2.4 nM
CC(C)[C@@H]1NC(=O)[C@H](C(C)C)NC(=O)[C@@H]2CCCCNC(=O)CN(C)C(=O)Cn3cc(c4ccccc43)C[C@H](NC(=O)[C@H](CC(N)=O)NC(=O)[C@H](CO)NC1=O)C(=O)N[C@@H](Cc1ccc(O)cc1)C(=O)N[C@@H](CCCCN)C(=O)N[C@@H](Cc1c[nH]c3ccc(O)cc13)C(=O)NC(C)(C)C(=O)N[C@@H](C(C)C)C(=O)N[C@H](C(=O)NCC(N)=O)CSCC(=O)N[C@@H](Cc1ccc(O)cc1)C(=O)N2C [Compound 3] ({CH2CO}-Y[NMeK]VVSN[Trp(1-CH2CO)]YK[Trp(5-OH)][Aib]VCG-NH2; linker 2-7 via X16; thioether N-13)	1.71 nM
CC(C)[C@@H]1NC(=O)[C@H](C(C)C)NC(=O)[C@@H]2CCCCNC(=O)Cn3cc(c4ccccc43)C[C@H](NC(=O)[C@H](CC(N)=O)NC(=O)[C@H](CO)NC1=O)C(=O)N[C@@H](Cc1ccc(C(=O)O)cc1)C(=O)N[C@@H](CCCCN)C(=O)N[C@@H](Cc1c[nH]c3ccc(O)cc13)C(=O)NC1(CCN(CC(=O)O)CC1)C(=O)N[C@@H](C(C)C)C(=O)N[C@H](C(=O)NCCCC[C@H](NC(=O)CC[C@H](NC(=O)CC[C@H](NC(=O)CCCCCCCCCCCCCCC(=O)O)C(=O)O)C(=O)O)C(N)=O)CSCC(=O)N[C@@H](Cc1ccc(O)cc1)C(=O)N2C [Compound 23] ({CH2CO}-Y[NMeK]VVSN[Trp(1-CH2CO)][Phe(4-COOH)]K[Trp(5-OH)][X7]VC-X3; lactam 2-7; thioether N-13)	2.29 nM

Same assay, conditions: SPR, hGhR; Table 2 monocyclic peptides; KD calculated from ka and kd; read-out: KD

SMILES	Kd
COc1ccc2[nH]cc(C[C@@H]3NC(=O)[C@H](CC(N)=O)NC(=O)[C@H](CO)NC(=O)[C@H](C(C)C)NC(=O)[C@H](C(C)C)NC(=O)[C@H](CCCCNC(=O)CC[C@H](NC(=O)CC[C@H](NC(=O)CCCc4ccc(I)cc4)C(=O)O)C(=O)O)N(C)C(=O)[C@H](Cc4ccc(C(=O)O)cc4)NC(=O)CSC[C@@H](C(=O)NCC(=O)N4CCC[C@H]4C(=O)N[C@H](CO)C(=O)N[C@H](CO)C(=O)N[C@H](CO)C(N)=O)NC(=O)[C@H](C(C)C)NC(=O)C(C)(C)NC(=O)[C@H](Cc4c[nH]c5ccc(O)cc45)NC(=O)[C@H](CCCCN)NC(=O)[C@H](Cc4ccc(C(=O)O)cc4)NC3=O)c2c1 [Compound 42] ({CH2CO}-[Phe(4-COOH)][NMeK]([γGlu-γGlu-Butanoyl(4-(4-I-phenyl))])VVSN[Trp(5-OMe)][Phe(4-COOH)]K[Trp(5-OH)][Aib]VCGP[dS][dS][dS]-NH2; thioether N-13)	3.79 nM
COc1ccc2[nH]cc(C[C@@H]3NC(=O)[C@H](CC(N)=O)NC(=O)[C@H](CO)NC(=O)[C@H](C(C)C)NC(=O)[C@H](C(C)C)NC(=O)[C@H](CCCCNC(=O)CC[C@H](NC(=O)CCCc4ccc(I)cc4)C(=O)O)N(C)C(=O)[C@H](Cc4ccc(O)cc4)NC(=O)CSC[C@@H](C(=O)NCC(=O)N4CCC[C@H]4C(=O)N[C@H](CO)C(=O)N[C@H](CO)C(=O)N[C@H](CO)C(N)=O)NC(=O)[C@H](C(C)C)NC(=O)C4(CCN(CC(=O)O)CC4)NC(=O)[C@H](Cc4c[nH]c5ccc(O)cc45)NC(=O)[C@H](CCCCN)NC(=O)[C@H](Cc4ccc(C(=O)O)cc4)NC3=O)c2c1 [Compound 51] ({CH2CO}-Y[NMeK]([γGlu-Butanoyl(4-(4-I-phenyl))])VVSN[Trp(5-OMe)][Phe(4-COOH)]K[Trp(5-OH)][X7]VCGP[dS][dS][dS]-NH2; thioether N-13)	7.57 nM
